Laboratory results: US5438062A, “Benzo(5,6)cycloheptapyridines, compositions and methods of use” (Schering Corporation, priority 1987, dated 1995)
pIC50: −log10 of the molar value.

Experiments:
[1] = system: histamine-induced lethality; test: Antihistamine activity: prevention of histamine-induced lethality in guinea pigs; format: in vivo; settings: Cavia porcellus; guinea pig, oral; probit analysis; read-out: Antihistaminic Activity, ED50
Procedure: C. ANTIHISTAMINE ACTIVITY ASSAY
Prevention of Histamine-Induced Lethality in Guinea Pigs. Some of compounds shown below in Table I also were evaluated for antihistamine activity by their ability to protect female albino guinea pigs (250-350 g) against death induced by the intravenous injection of histamine dihydrochloride at 1.1 mg/kg, which is approximately twice the LD99. Doses of the antagonists were administered orally to separate groups of fasted animals 1 hour prior to the challenge with histamine and protection from death recorded for 30 minutes after histamine. ED50 values were determined for each drug by probit analysis.

[2] = system: PAF-induced platelet aggregation (platelet-rich plasma); test: PAF antagonism, in vitro platelet aggregation assay; format: cell-based; settings: human PRP; for pIC50: dose giving 50 % PAF antagonism, PAF 1-5×10^-8 M; for inhibition at 5 µM: dose 5 micromoles
Procedure: Blood was centrifuged at 110×g for 15 min. and the supernatant PRP carefully transferred into a polypropylene tube. Platelet-poor-plasma (PPP) was prepared by centrifuging PRP at 12,000×g for 2 min. in a Beckman Microfuge B. PRP was used within 3 hours of drawing the blood.
Platelet Aggregation Assay: When an aggregating agent such as PAF is added to PRP, platelets aggregate. An aggregometer quantifies this aggregation by measuring light (infra-red) transmission through PRP and comparing to PPP. The aggregation assays were performed using a dual-channel aggregometer (Model 440, Chrono-Log Corp., Hayertown, Pa.). PRP (0.45 ml) in aggregometer curettes was continually stirred (37° C.). Solutions of test compounds or vehicle were added to the PRP, and after incubation for 2 min., 10-15 μl aliquots of PAF solution were added so as to achieve a final concentration of 1-5×10^-8 M. Incubations were continued until the increase in light transmission reached a maximum (usually about 2 min). Values for inhibition were calculated by comparing maximal aggregation obtained in the absence and the presence of the compound. For each experiment, a standard PAF antagonist, such as alprazolam, was used as a positive internal control. […] The test results are shown below in Tables Ia, Ib and Ic.

pIC50 [2]	Compound	other results
5.92	CC(=O)N1CCC(=C2c3ccc(Cl)cc3CC(=O)c3cccnc32)CC1 [8-chloro-11-[1-acetyl-4-piperidylidene]-6,11-dihydro-5H-benzo[5,6]cyclohepta[1,2-b]pyridin-5-one]	–
6.30	CC(=O)N1CCC(=C2c3ccc(Cl)cc3C=Cc3cccnc32)CC1	–
6.00	CC(=O)N1CCC(=C2c3ccc(Cl)cc3CC(C)c3cccnc32)CC1 (centres unmarked) [5-methyl-8-chloro-11-[1-acetyl-4-piperidylidene]-5H-benzo[5,6]cyclohepta[1,2-b]pyridine]	–
5.82	CC(=O)N1CCC(=C2c3ccccc3CCc3ccc[n+]([O-])c32)CC1	–
5.30	COCC(=O)N1CCN(C2c3ccc(Cl)cc3CCc3cccnc32)CC1 (centres unmarked) [8-chloro-11-(1-methoxyacetyl-4-piperazinyl)-6,11-dihydro-5H-benzo[5,6]cyclohepta[1,2-b]pyridine]	–
5.30	CC(=O)N1CCC(C2c3ccccc3CCc3cccnc32)CC1 (centres unmarked) [R^3 = H, R^4 = H, R = CH3, Z = O, X = CH, 11-(1-acetyl-4-piperidyl)-6,11-dihydro-5H-benzo[5,6]cyclohepta[1,2-b]pyridine]	–
5.92	CC(=O)N1CCC(=C2c3ccc(Br)cc3CCc3cccnc32)CC1 [R^3 = Br, R^4 = H, R = CH3, Z = O, 8-bromo-11-[1-acetyl-4-piperidylidene]-6,11-dihydro-5H-benzo[5,6]cyclohepta[1,2-b]pyridine]	–
5.30	CC(=O)N1CCC(=C2c3ccc(Cl)cc3CC(O)c3cccnc32)CC1 (centres unmarked) [5-hydroxy-8-chloro-11-(1-acetyl-4-piperidylidene)-6,11-dihydro-5H-benzo[5,6]cyclohepta[1,2-b]pyridine]	–
5.30	O=CN1CCN(C2c3ccc(Cl)cc3CCc3cccnc32)CC1 (centres unmarked) [R^3 = Cl, X = N, R = H, Z = O, R^4 = H, 8-chloro-11-(1-formyl-4-piperazinyl)-6,11-dihydro-5H-benzo[5,6]cyclohepta[1,2-b]pyridine]	–

The next lines start with the molecule.

Compound	pIC50 [2]	other results
CCOC(=O)N1CCC(=C2c3ccc(Cl)cc3CCc3cccnc32)CC1 [R = OC2 H5, R^3 = Cl, R4 = H, Z = O, 8-chloro-6,11-dihydro-11-(1-ethoxycarbonyl-4-piperidylidene)-5H-benzo[5,6]cyclohepta[1,2-b]pyridine, reference compound]	–	ED50 [1]: 0.19 mg/kg
CC(=O)N1CCC(=C2c3cc(F)c(F)cc3CCc3ccc[n+]([O-])c32)CC1	–	inhibition at 2.5 µM ([2]; dose 2.5 micromoles): 53%
CNC(=O)N1CCC(=C2c3ccc(Cl)cc3CCc3cccnc32)CC1 [R^3 = Cl, R^4 = H, R = NHCH3, Z = O, 8-chloro-11-(1-methylaminocarbonyl-4-piperidylidene)-6,11-dihydro-5H-benzo[5,6]cyclohepta[1,2-b]pyridine]	–	inhibition at 50 µM ([2]; dose 50 micromoles): 29%
CC(=O)N1CCC(=C2c3ccc(Cl)cc3CCc3ccc[n+](C)c32)CC1	–	inhibition at 5 µM [2]: 58%
CC(=O)N1CCC(=C2c3ccc(Cl)cc3CCc3cc(C)cnc32)CC1	–	inhibition at 0.12 µM ([2]; dose .12 micromoles): 44%
C=CC(=O)N1CCC(=C2c3ccc(Cl)cc3CCc3cccnc32)CC1 [R^3 = Cl, R^4 = H, R = CHCH2, Z = O, 8-chloro-11-[1-acryloyl-4-piperidylidene]-6,11-dihydro-5H-benzo[5,6]cyclohepta[1,2-b]pyridine]	–	inhibition at 25 µM ([2]; dose 25 micromoles): 63%
CC(=O)N1CCC(=C2c3cc4ccccc4cc3CCc3cccnc32)CC1	–	inhibition at 5 µM [2]: 35%
CC(=O)N1CCN(C2c3ccc(Cl)cc3CCc3cccnc32)CC1 (centres unmarked) [R^3 = Cl, X = N, R = CH3, Z = O, R^4 = H, 8-chloro-11-(1-acetyl-4-piperazinyl)-6,11-dihydro-5H-benzo[5,6]cyclohepta[1,2-b]pyridine]	–	inhibition at 0.5 µM ([2]; dose .5 micromoles): 43%
